From PMC12279193 (Advanced Science, 2025)

Assays:
[1] = target: recombinant SARS-CoV-2 S-trimer protein; trimeric spike protein (Severe acute respiratory syndrome coronavirus 2, UniProt P0DTC2); assay: SPR (Biacore T200), spike trimer immobilised on CM5 chip; format: binding
SARS-CoV-2 S-RBD/ACE2 = SARS-CoV-2 S-RBD/ACE2 (Severe acute respiratory syndrome coronavirus 2, UniProt P0DTC2); assay: NanoBiT RBD/ACE2 interaction assay in HEK293 cells; format: cell-based

## CN(/N=C/c1ccccc1C(=O)O)c1nc(-c2ccccc2Cl)cs1 [S416]
[1]
  Kd: 6.88 µM
SARS-CoV-2 S-RBD/ACE2
  IC50: 3.94 µM
